Where two headings read alike, the source gives them in different places.
How the values were obtained:
[1] = system: LLC-MDR1 monolayers; format: in vitro ADME; conditions: pig, LLC-PK1, 120 min
Description: Assay Description for the Measurement of Transepithelial Transport of Test Compounds Through LLC-MDR1 Monolayers
The integrity of the cellular monolayer was assessed in each incubation well through the inclusion of the fluorescent, low permeability marker compound, Fluorescein.
In detail, LLC-MDR1 cells (LLC-PK1 cells stably transduced with MDR1 in a trans-well system) were seeded on 24-well cell culture inserts (Millicell®-PCF, 0.4 μm, 13 mm Ø, 0.7 cm^2) at 400 000 cells/cm^2. Cell culture medium consists of Medium 199 supplemented with 10% Fetal Bovine Serum (FBS) and 100 U/mL Penicillin/streptomycin and was replaced the day after seeding and the day before the experiment. The transport experiment was performed 5 days after seeding. On the day of the experiment, solutions of the test compounds were applied to the apical side of the monolayers to assess transport in the AtoB direction,. The medium used in the assay was (OPTI-MEM (1×) (GIBCO) with 1 w/v % Bovine Serum Albumin. Inserts were incubated at 37° C. in a humidified incubator containing 5% CO2. Samples from the acceptor and donor compartments were collected after an incubation time of 120 min, to assess the permeability and to allow estimation of the test compound recovery during the experiment, respectively. Transport experiments were performed in triplicate. Absolute test compound concentrations were measured using LC-MS/MS and quantified via a calibration curve.

[2] = system: HCV replicon (Huh-Luc cells, NS3-NS5B regions of HCV type 1b); assay: HCV replicon assay (Huh-7 luc/neo, luciferase readout); format: cell-based; conditions: Huh-Luc replicon cells, three days incubation, luciferase activity, average if tested more than once, read-out: HCV-REP-HUH7LUC_EC50
Excerpt: The in vitro antiviral activity against HCV of the compounds of formula I can be tested in a cellular HCV replicon system based on Lohmann et al. (1999) Science 285:110-113, with the further modifications described by Krieger et al. (2001) Journal of Virology 75: 4614-4624 (incorporated herein by reference), which is further exemplified in the examples section. This model, while not a complete infection model for HCV, is widely accepted as the most robust and efficient model of autonomous HCV RNA replication currently available. It will be appreciated that it is important to distinguish between compounds that specifically interfere with HCV functions from those that exert cytotoxic or cytostatic effects in the HCV replicon model, and as a consequence cause a decrease in HCV RNA or linked reporter enzyme concentration. Assays are known in the field for the evaluation of cellular cytotoxicity based for example on the activity of mitochondrial enzymes using fluorogenic redox dyes such as resazurin. Furthermore, cellular counter screens exist for the evaluation of non-selective inhibition of linked reporter gene activity, such as firefly luciferase. Appropriate cell types can be equipped by stable transfection with a luciferase reporter gene whose expression is dependent on a constitutively active gene promoter, and such cells can be used as a counter-screen to eliminate non-selective inhibitors.
The compounds of formula (I) were examined for inhibitory activity in the HCV replicon. This cellular assay is based on a bicistronic expression construct, as described by Lohmann et al. (1999) Science vol. 285 pp. 110-113 with modifications described by Krieger et al. (2001) Journal of Virology 75: 4614-4624, in a multi-target screening strategy.
The assay utilized the stably transfected cell line Huh-7 luc/neo (hereafter referred to as Huh-Luc). This cell line harbors an RNA encoding a bicistronic expression construct comprising the wild type NS3-NS5B regions of HCV type 1b translated from an
Internal Ribosome Entry Site (IRES) from encephalomyocarditis virus (EMCV), preceded by a reporter portion (FfL-luciferase), and a selectable marker portion (neo^R, neomycine phosphotransferase). The construct is flanked by 5′ and 3′ NTRs (non-translated regions) from HCV type 1b. Continued culture of the replicon cells in the presence of G418 (neo^R) is dependent on the replication of the HCV RNA. The stably transfected replicon cells that express HCV RNA, which replicates autonomously and to high levels, encoding inter alia luciferase, were used for screening the antiviral compounds.
The replicon cells were plated in 384 well plates in the presence of the test and control compounds which were added in various concentrations. Following an incubation of three days, HCV replication was measured by assaying luciferase activity (using standard luciferase assay substrates and reagents and a Perkin Elmer ViewLux™ ultraHTS microplate imager). Replicon cells in the control cultures have high luciferase expression in the absence of any inhibitor. The inhibitory activity of the compound on luciferase activity was monitored on the Huh-Luc cells, enabling a dose-response curve for each test compound. EC50 values were then calculated, which represent the amount of compound required to decrease the level of detected luciferase activity by 50%, or more specifically, to reduce the ability of the genetically linked HCV replicon RNA to replicate.
Where a compound of formula (I) was tested more than once in the replicon assay, the average of all test results is given in this Table 1.

SMILES | A->B permeability (Papp × 10^−6 cm/sec) in the presence the P-gp inhibitor GF120918 [1] | EC50 ([2]; Hepatitis C virus, Huh-7, 72 h) | EC50 [2]
COC(=O)N[C@H](C(=O)N1CCC[C@H]1c1ncc(-c2ccc3cc(-c4ccc5c(=O)[nH]c([C@@H]6CCCN6C(=O)[C@H](NC(=O)OC(C)(C)C)c6ccccc6)nc5c4)ccc3c2)[nH]1)C(C)C [Compound 44-1] | 2.7 10^−6 cm/sec | 8.1 nM | 
COC(=O)N[C@H](C(=O)N1CCCC1c1[nH]c2cc(-c3ccc4cc(-c5cnc([C@@H]6CCCN6C(=O)[C@@H](NC(=O)OC)C(C)C)[nH]5)ccc4c3)ccc2c(=O)c1F)C(C)C (single isomer, unassigned) [Compound 110a] | 0.4 10^−6 cm/sec |  | 0.048 nM
COC(=O)N[C@H](C(=O)N1CCC[C@H]1c1ncc(-c2ccc3cc(-c4ccc5c(=O)[nH]c([C@@H]6CCCN6C(=O)[C@H](NC(=O)OC)c6ccccc6)nc5c4)ccc3c2)[nH]1)C(C)C [Compound 44-2] | 5.5 10^−6 cm/sec | 0.084 nM | 
COC(=O)N[C@H](C(=O)N1CCCC1c1[nH]c2cc(-c3ccc4cc(-c5cnc([C@@H]6CCCN6C(=O)[C@@H](NC(=O)OC)C(C)C)[nH]5)ccc4c3)ccc2c(=O)c1F)C(C)C (single isomer, unassigned) [Compound 110b] | 2.3 10^−6 cm/sec |  | 0.48 nM
COC(=O)N[C@H](C(=O)N1CCC[C@H]1c1ncc(-c2ccc3cc(-c4ccc5c(=O)[nH]c([C@@H]6CCCN6C(=O)[C@@H](NC(=O)OC)C(C)C)nc5c4)ccc3c2)[nH]1)C(C)C [Compound 44] | 6.9 10^−6 cm/sec | 0.005 nM | 
COC(=O)N[C@H](C(=O)N1CCCC1c1[nH]c2cc(-c3ccc4cc(-c5cnc([C@@H]6CCCN6C(=O)[C@@H](NC(=O)OC)C(C)C)[nH]5)ccc4c3)ccc2c(=O)c1C)C(C)C (single isomer, unassigned) [Compound 102a] | <0.6 10^−6 cm/sec | 0.069 nM | 
COC(=O)N[C@H](C(=O)N1CCC[C@H]1c1ncc(-c2ccc3cc(-c4ccc5nc([C@@H]6CCCN6C(=O)[C@@H](NC(=O)OC)C(C)C)[nH]c(=O)c5c4)ccc3c2)[nH]1)C(C)C [Compound 35] | 5.0 10^−6 cm/sec | 0.64 nM | 
COC(=O)N[C@H](C(=O)N1CCC[C@H]1C1=Nc2cc(-c3ccc4cc(-c5cnc([C@@H]6CCCN6C(=O)[C@@H](NC(=O)OC)C(C)C)[nH]5)ccc4c3)ccc2C2(COC2)N1)C(C)C [Compound 70] | 7.8 10^−6 cm/sec | 0.009 nM | 
COC(=O)N[C@H](C(=O)N1CCC[C@H]1C1=NS(=O)(=O)c2ccc(-c3ccc4cc(-c5cnc([C@@H]6CCCN6C(=O)[C@@H](NC(=O)OC)C(C)C)[nH]5)ccc4c3)cc2N1)C(C)C [Compound 84] | 0.4 10^−6 cm/sec | 0.034 nM | 
COC(=O)N[C@H](C(=O)N1CCC[C@H]1c1ncc(-c2ccc3cc(-c4ccc5c(c4)NC([C@@H]4CCCN4C(=O)[C@H](NC(=O)OC)c4ccccc4)=NS5(=O)=O)ccc3c2)[nH]1)C(C)C [Compound 87] | 1.0 10^−6 cm/sec | 0.008 nM | 
COC(=O)N[C@H](C(=O)N1CCC[C@H]1c1ncc(-c2ccc3cc(-c4ccc5c(=O)[nH]c([C@@H]6CC(C)(C)CN6C(=O)[C@@H](NC(=O)OC)C(C)C)nc5c4)ccc3c2)[nH]1)C(C)C [Compound 50] | 5.8 10^−6 cm/sec | 0.006 nM | 
COC(=O)N[C@H](C(=O)N1CCC[C@H]1C1=Nc2cc(-c3ccc4cc(-c5cnc([C@@H]6CCCN6C(=O)[C@@H](NC(=O)OC)C(C)C)[nH]5)ccc4c3)ccc2C(C)(C)N1)C(C)C [Compound 61] | 4.8 10^−6 cm/sec | 0.017 nM | 
COC(=O)N[C@H](C(=O)N1CCCC1c1cc(=O)c2ccc(-c3ccc4cc(-c5cnc([C@@H]6CCCN6C(=O)[C@@H](NC(=O)OC)C(C)C)[nH]5)ccc4c3)cc2[nH]1)C(C)C (single isomer, unassigned) [Compound 13b] | 0.5 10^−6 cm/sec | 0.022 nM | 
